From patent US12391737B2, “Soluble NPY2 receptor agonists” (Boehringer Ingelheim International GmbH, priority 2020, dated 2025) come the findings set out here.

Data set [1] addresses T1, Human Neuropeptide Y2 Receptor (Homo sapiens, UniProt P49146).
T1 construct: purchased CHEMICON HTS066M
T1 sequence (P49146 1-381): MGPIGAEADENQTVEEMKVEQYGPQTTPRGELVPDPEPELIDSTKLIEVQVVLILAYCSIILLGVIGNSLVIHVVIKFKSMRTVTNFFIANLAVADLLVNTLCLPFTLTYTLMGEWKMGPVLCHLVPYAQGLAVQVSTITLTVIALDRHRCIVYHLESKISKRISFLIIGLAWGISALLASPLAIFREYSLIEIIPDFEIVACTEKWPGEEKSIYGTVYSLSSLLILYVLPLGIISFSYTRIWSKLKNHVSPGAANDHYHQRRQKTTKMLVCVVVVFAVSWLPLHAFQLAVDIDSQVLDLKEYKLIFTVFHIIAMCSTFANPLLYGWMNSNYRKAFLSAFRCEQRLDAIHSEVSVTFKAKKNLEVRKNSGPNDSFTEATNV
The data set is described as follows: Radioligand binding competition assay (RLB). The following applies: Table 3, 125I-PYY(1-36) competition; read-out: Ki. The essentials:
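Displacement of radioligand is measured after 2 h at room temperature with receptor membranes in Mg2+/Ca2+ HEPES buffer, pH 7.4. Filter-bound radioactivity is counted and IC50 obtained from curve fitting.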

The nature of the next data set: Solubility determination. The following applies: for Sol6: pH 6; for Sol7: pH 7. In a few lines:
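Shake-flask style: 10 mg/ml peptide (TFA salt), 0.1 M sodium diphosphate pH 6.4/7.0, 600 rpm, 2 h, RT; filter; dilute 1 mg/ml in 50% MeCN; RP-UPLC, 0–100% B over 2 min, 50 °C. Solubility = sample/control area ratio. Final pH recorded.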

For data set [2], the target named is T2, human NPY2 receptor (hY2R) (Homo sapiens, UniProt P49146).
T2 sequence (P49146 1-381): T1 sequence (P49146 1-381)
The experiment in a line: HTRF cAMP Gi assay, hY2R.
Text: The Homogenous Time Resolved fluorescence (HTRF) technology optimized for Gi coupled receptors has thoroughly been described in Cisbio cAMP Gi kit manual. Briefly, the production of intracellular cAMP will generate a competition between unlabeled cAMP and exogenously added d2-cAMP for anti-cAMP antibodies conjugated to cryptate. CHO-K1 cells stably expressing the human NPY1, NPY2, NPY4 and NPY5 receptors were used with the cells brought to life from a frozen stock immediately before assay performance. 2000 cells per well were applied for all four NPY receptor subtype assays. A 384-well format was used applying a total volume of 20 μl using 5 μl cells, 2.5 μl peptide agonist, 2.5 μl forskolin and 5 μl of each of the fluorophores. […] Concentration-response evaluation of compounds was performed with 11 concentrations of agonist peptides (covering 3 decades). EC50 values were calculated by nonlinear regression using sigmoid concentration-response with variable slope.

The target in data set [3] is T3, human NPY5 receptor (hY5R) (Homo sapiens, UniProt Q15761).
T3 sequence (Q15761 1-445): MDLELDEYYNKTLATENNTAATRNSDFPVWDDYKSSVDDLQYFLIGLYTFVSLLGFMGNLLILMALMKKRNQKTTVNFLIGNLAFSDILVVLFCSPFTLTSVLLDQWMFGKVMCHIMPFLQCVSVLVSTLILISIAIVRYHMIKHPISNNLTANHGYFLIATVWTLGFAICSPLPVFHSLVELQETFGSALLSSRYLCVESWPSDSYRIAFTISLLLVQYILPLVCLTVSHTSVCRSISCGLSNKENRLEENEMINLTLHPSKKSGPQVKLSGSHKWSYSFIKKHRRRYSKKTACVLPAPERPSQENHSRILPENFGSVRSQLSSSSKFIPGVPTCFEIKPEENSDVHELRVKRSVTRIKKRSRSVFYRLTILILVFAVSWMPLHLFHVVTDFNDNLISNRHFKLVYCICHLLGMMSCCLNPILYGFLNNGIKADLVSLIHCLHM
The experiment in a line: HTRF cAMP Gi assay, hY5R. (Time-resolved FRET reads energy transfer from a long-lived donor to a nearby acceptor.)

Data set [4] has as its target T4, human NPY1 receptor (hY1R) (Homo sapiens, UniProt P25929).
T4 construct: expressed in transfected cells; host or cells: CHO-K1
T4 sequence (P25929 1-384): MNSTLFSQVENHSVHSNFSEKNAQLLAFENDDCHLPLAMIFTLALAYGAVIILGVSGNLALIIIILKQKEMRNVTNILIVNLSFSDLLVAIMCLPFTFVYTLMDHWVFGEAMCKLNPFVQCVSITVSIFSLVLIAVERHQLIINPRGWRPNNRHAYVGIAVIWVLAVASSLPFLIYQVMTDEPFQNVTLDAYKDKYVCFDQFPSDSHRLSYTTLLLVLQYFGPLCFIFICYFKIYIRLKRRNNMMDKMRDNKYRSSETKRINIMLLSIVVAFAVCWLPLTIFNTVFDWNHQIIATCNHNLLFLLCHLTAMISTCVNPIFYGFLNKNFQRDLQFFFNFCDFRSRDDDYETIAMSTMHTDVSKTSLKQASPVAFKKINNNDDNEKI
The data set is described as follows: HTRF cAMP Gi assay, hY1R. In kind it is cell-based. The following applies: CHO-K1 cells.
Experimental: (§1) Briefly, the production of intracellular cAMP will generate a competition between unlabeled cAMP and exogenously added d2-cAMP for anti-cAMP antibodies conjugated to cryptate. CHO-K1 cells stably expressing the human NPY1, NPY2, NPY4 and NPY5 receptors were used with the cells brought to life from a frozen stock immediately before assay performance. 2000 cells per well were applied for all four NPY receptor subtype assays. A 384-well format was used applying a total volume of 20 μl using 5 μl cells, 2.5 μl peptide agonist, 2.5 μl forskolin and 5 μl of each of the fluorophores. […] Concentration-response evaluation of compounds was performed with 11 concentrations of agonist peptides (covering 3 decades). EC50 values were calculated by nonlinear regression using sigmoid concentration-response with variable slope.

Data set [5] deals with T5, human NPY4 receptor (hY4R) (Homo sapiens, UniProt P50391).
T5 construct: expressed in transfected cells; host or cells: CHO-K1
T5 sequence (P50391 whole entry): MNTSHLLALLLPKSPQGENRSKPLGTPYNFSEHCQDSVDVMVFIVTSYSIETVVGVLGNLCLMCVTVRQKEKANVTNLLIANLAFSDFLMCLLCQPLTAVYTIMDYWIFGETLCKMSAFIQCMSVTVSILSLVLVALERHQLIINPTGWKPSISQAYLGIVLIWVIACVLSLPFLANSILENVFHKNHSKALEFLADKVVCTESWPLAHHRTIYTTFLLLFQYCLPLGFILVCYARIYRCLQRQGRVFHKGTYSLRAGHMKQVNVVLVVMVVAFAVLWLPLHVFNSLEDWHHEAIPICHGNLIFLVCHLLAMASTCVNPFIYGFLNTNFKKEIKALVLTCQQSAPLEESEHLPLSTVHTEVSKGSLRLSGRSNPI
The data set is described as follows: HTRF cAMP Gi assay, hY4R. In kind it is cell-based. The following applies: CHO-K1 cells.
Experimental: as §1

One may read the Ki as the equilibrium dissociation constant of an inhibitor or competing ligand from its target. As usually defined, the EC50 is the concentration giving half of the maximal effect. High values mean a less potent agent, low ones a more potent agent. Regarding `CC(C)CC(=O)N[C@@H](C)C(=O)N1CCC[C@H]1C(=O)N[C@@H](CCC(=O)O)C(=O)N[C@@H](CCCCNC(=O)CCCCCNC(=O)CC[C@H](NC(=O)CCCCCCCCCCCCCCCCC(=O)O)C(=O)O)C(=O)N1CCC[C@H]1C(=O)N[C@@H](CCC(=O)O)C(=O)N[C@@H](C)C(=O)N[C@@H](CC(=O)O)C(=O)N[C@@H](C)C(=O)N[C@@H](CO)C(=O)N1CCC[C@H]1C(=O)N[C@@H](CCC(=O)O)C(=O)N[C@@H](CCC(=O)O)C(=O)N[C@@H](CC(C)C)C(=O)N[C@@H](CCC(N)=O)C(=O)N[C@@H](CCCNC(=N)N)C(=O)N[C@@H](Cc1ccc(O)cc1)C(=O)N[C@@H](Cc1ccc(O)cc1)C(=O)N[C@H](C(=O)N[C@@H](CO)C(=O)N[C@@H](CC(C)C)C(=O)N[C@@H](CCCNC(=N)N)C(=O)N[C@@H](Cc1c[nH]cn1)C(=O)N[C@@H](Cc1ccc(O)cc1)C(=O)N[C@@H](Cc1ccc(O)cc1)C(=O)N[C@@H](CC(N)=O)C(=O)N[C@@H](Cc1c[nH]c2ccccc12)C(=O)N[C@@H](CC(C)C)C(=O)N[C@H](C(=O)N[C@@H](CCCNC(=N)N)C(=O)N[C@@H](CCC(N)=O)C(=O)N[C@@H](CCCNC(=N)N)C(=O)N[C@@H](Cc1ccc(O)cc1)C(N)=O)[C@@H](C)O)C(C)C` [Compound 196, N{alpha-4}-(3-methylbutanoyl)-N{epsilon-7}-(6-[(4S)-4-carboxy-4-(17-carboxyheptadecanamido)butanamido]hexanoyl)-[4A,7K,9E,10A,18Q,22V,28Y,30W,31L]-hPYY(4-36)], in data set [1], the Ki was determined as 3.57 nM. In “Solubility determination”, the “Sol6” value turned out to be 8.4 mg/mL. In addition, the “Sol7” value in “Solubility determination” is 9.8 mg/mL. Also, the EC50 in data set [2] was 0.086 nM; in data set [3] it was above 5000 nM.

Take `CC(C)CC(=O)N[C@@H](C)C(=O)N1CCC[C@H]1C(=O)N[C@@H](CCC(=O)O)C(=O)N[C@@H](CCCCNC(=O)CCCCCNC(=O)CC[C@H](NC(=O)CCCCCCCCCCCCCCCCC(=O)O)C(=O)O)C(=O)N1CCC[C@H]1C(=O)N[C@@H](CCC(=O)O)C(=O)N[C@@H](C)C(=O)N[C@@H](CC(=O)O)C(=O)N[C@@H](C)C(=O)N[C@@H](CCC(=O)O)C(=O)N1CCC[C@H]1C(=O)N[C@@H](CCC(=O)O)C(=O)N[C@@H](CCC(=O)O)C(=O)N[C@@H](CC(C)C)C(=O)N[C@@H](CCC(N)=O)C(=O)N[C@@H](CCCNC(=N)N)C(=O)N[C@@H](Cc1ccc(O)cc1)C(=O)N[C@@H](Cc1ccc(O)cc1)C(=O)N[C@H](C(=O)N[C@@H](CO)C(=O)N[C@@H](CC(C)C)C(=O)N[C@@H](CCCNC(=N)N)C(=O)N[C@@H](Cc1c[nH]cn1)C(=O)N[C@@H](Cc1ccc(O)cc1)C(=O)N[C@@H](Cc1ccc(O)cc1)C(=O)N[C@@H](CC(N)=O)C(=O)N[C@@H](Cc1c[nH]c2ccccc12)C(=O)N[C@@H](CC(C)C)C(=O)N[C@H](C(=O)N[C@@H](CCCNC(=N)N)C(=O)N[C@@H](CCC(N)=O)C(=O)N[C@@H](CCCNC(=N)N)C(=O)N[C@@H](Cc1ccc(O)cc1)C(N)=O)[C@@H](C)O)C(C)C` [Compound 72, N{alpha-4}-(3-methylbutanoyl)-N{epsilon-7}-(6-[(4S)-4-carboxy-4-(17-carboxyheptadecanamido)butanamido]hexanoyl)-[4A,7K,9E,10A,13E,18Q,22V,28Y,30W,31L]-hPYY(4-36)]: the Ki in data set [1] was found to be 2.79 nM. For the same compound, in “Solubility determination”, the “Sol6” value is 9.0 mg/mL and the “Sol7” value was determined as 9.2 mg/mL. Further, a half-maximal response in data set [2] (EC50) required 0.197 nM. In addition, in data set [3], the EC50 is above 5000 nM.

On to `CC[C@H](C)[C@H](NC(=O)[C@H](CCC(=O)O)NC(=O)[C@H](CCC(=O)O)NC(=O)[C@@H]1CCCN1C(=O)[C@H](CO)NC(=O)[C@H](C)NC(=O)[C@H](C)NC(=O)[C@H](CCC(=O)O)NC(=O)[C@H](CCC(=O)O)NC(=O)[C@@H]1CCCN1C(=O)[C@H](CCCCNC(=O)CCCCCNC(=O)CC[C@H](NC(=O)CCCCCCCCCCCCCCCCC(=O)O)C(=O)O)NC(=O)[C@H](CCC(=O)O)NC(=O)[C@@H]1CCCN1C(=O)[C@H](C)NC(=O)CC(C)C)C(=O)N[C@@H](CCC(N)=O)C(=O)N[C@@H](CCCNC(=N)N)C(=O)N[C@@H](Cc1ccc(O)cc1)C(=O)N[C@@H](Cc1ccc(O)cc1)C(=O)N[C@H](C(=O)N[C@@H](CO)C(=O)N[C@@H](CC(C)C)C(=O)N[C@@H](CCCNC(=N)N)C(=O)N[C@@H](Cc1c[nH]cn1)C(=O)N[C@@H](Cc1ccc(O)cc1)C(=O)N[C@@H](Cc1ccc(O)cc1)C(=O)N[C@@H](CC(N)=O)C(=O)N[C@@H](Cc1c[nH]c2ccccc12)C(=O)N[C@@H](CC(C)C)C(=O)N[C@H](C(=O)N[C@@H](CCCNC(=N)N)C(=O)N[C@@H](CCC(N)=O)C(=O)N[C@@H](CCCNC(=N)N)C(=O)N[C@@H](Cc1ccc(O)cc1)C(N)=O)[C@@H](C)O)C(C)C` [Compound 150, N{alpha-4}-(3-methylbutanoyl)-N{epsilon-7}-(6-[(4S)-4-carboxy-4-(17-carboxyheptadecanamido)butanamido]hexanoyl)-[4A,7K,9E,11A,17I,18Q,22V,28Y,30W,31L]-hPYY(4-36)], for which the Ki in data set [1] was 2.18 nM. In addition, the EC50 in data set [4], in data set [5] and in data set [3] was above 5000 nM each time. Also, the “Sol6” value in “Solubility determination” stood at 9.7 mg/mL. In addition, the “Sol7” value in “Solubility determination” was found to be 10.0 mg/mL.

Regarding `CC[C@H](C)[C@H](NC(=O)[C@H](CCC(=O)O)NC(=O)[C@H](CCC(=O)O)NC(=O)[C@@H]1CCCN1C(=O)[C@@H](NC(=O)[C@H](C)NC(=O)[C@H](CC(=O)O)NC(=O)[C@H](CCC(=O)O)NC(=O)[C@H](CCC(=O)O)NC(=O)[C@@H]1CCCN1C(=O)[C@H](CCCCNC(=O)CCCCCNC(=O)CC[C@H](NC(=O)CCCCCCCCCCCCCCCCC(=O)O)C(=O)O)NC(=O)[C@H](C)NC(=O)[C@@H]1CCCN1C(=O)[C@H](C)NC(=O)CC(C)C)[C@@H](C)O)C(=O)N[C@@H](CCC(N)=O)C(=O)N[C@@H](CCCNC(=N)N)C(=O)N[C@@H](Cc1ccc(O)cc1)C(=O)N[C@@H](Cc1ccc(O)cc1)C(=O)N[C@H](C(=O)N[C@@H](CO)C(=O)N[C@@H](CC(C)C)C(=O)N[C@@H](CCCNC(=N)N)C(=O)N[C@@H](Cc1c[nH]cn1)C(=O)N[C@@H](Cc1ccc(O)cc1)C(=O)N[C@@H](Cc1ccc(O)cc1)C(=O)N[C@@H](CC(N)=O)C(=O)N[C@@H](Cc1c[nH]c2ccccc12)C(=O)N[C@@H](CC(C)C)C(=O)N[C@H](C(=O)N[C@@H](CCCNC(=N)N)C(=O)N[C@@H](CCC(N)=O)C(=O)N[C@@H](CCCNC(=N)N)C(=O)N[C@@H](Cc1ccc(O)cc1)C(N)=O)[C@@H](C)O)C(C)C` [Compound 114, N{alpha-4}-(3-methylbutanoyl)-N{epsilon-7}-(6-[(4S)-4-carboxy-4-(17-carboxyheptadecanamido)butanamido]hexanoyl)-[4A,6A,7K,9E,13T,17I,18Q,22V,28Y,30W,31L]-hPYY(4-36)], the Ki in data set [1] was 0.95 nM. Moreover, the EC50 in data set [4], in data set [5] and in data set [3] was above 5000 nM throughout. Also, the “Sol6” value in the data set “Solubility determination” came to 8.5 mg/mL. The “Sol7” value in the data set “Solubility determination” was found to be 9.2 mg/mL.
